Reference: US20200024278A1, “COMPOSITION COMPRISING ANTIBIOTIC COMPOUND AND AN HETEROCYCLIC COMPOUND AND THEIR USE IN PREVENTING OR TREATING BACTERIAL INFECTIONS” (MUTABILIS, priority 2016, published 2020)
Like-named read-outs stand apart in the source and are kept apart here.

Tested on: PAE 27853
Assay type: cell-based, P. aeruginosa
Details: tntbc: Too numerous to be counted
Experimental: Method 4: Determination of the Spontaneous Mutation Frequency of the Compounds Alone and Combined with Antibiotics.
Bacterial isolates (Table 3) were grown overnight at 35° C. on TSA plates (Becton-Dickinson and Company) in ambient air. After 24 h of incubation, isolated bacterial colonies were added to cation-adjusted Mueller-Hinton broth (ca-MHB; Becton-Dickinson and Company) and cultured for approximately 6 h at 35° C. The pre-culture was stopped once bacteria have reached an OD600 nm of 0.5 for 200 μL. The bacterial suspension was centrifuged at 4000 rpm for 20 min. The supernatant was then discarded and the bacterial pellet was dissolved in ca-MHB to obtain 10^9 to 10^10 CFU/mL. Assays including Fosfomycin were supplemented with 25 μg/ml of Glucose-6-phosphate. 100 μL of the adjusted bacterial suspension were spread on agar plates containing different concentrations of the compounds of the present invention alone or combined with an antibacterial (Table 1). The plates were incubated for 24-48 h at 35° C. in ambient air. CFU were numerated on each agar plate containing compound. The number of resistant colonies obtained was divided by the starting inoculum to give the frequency of spontaneous resistance for a given incubation time (24 and 48 h).

O=C(O)c1cn(C2CC2)c2cc(N3CCNCC3)c(F)cc2c1=O [CIP, Ciprofloxacin]
Frequency of spontaneous resistance (single agent at 4.MIC): 5.1E−08
Frequency of spontaneous resistance (single agent at 8.MIC): 4.0E−09
